Patent US6136848A, “Flavone derivative and medicine comprising the same” (Kowa Co., Ltd., priority 1996, dated 2000)
Read-outs that look alike come from different tables or passages of the source. Each block holds one compound with its values, some of them ahead of it.

Tests used:
Leucotriene D4 Receptor = molecular target: T1, Leucotriene D4 Receptor (Cavia porcellus, UniProt Q2NNR5); test: Leucotriene D4 Receptor Binding Inhibition Test; parameters: species or system guinea pig
T1 construct: guinea pig pulmomembranous protein; from tissue; host or cells: guinea pig lung membranes
T1 sequence (Q2NNR5 1-340): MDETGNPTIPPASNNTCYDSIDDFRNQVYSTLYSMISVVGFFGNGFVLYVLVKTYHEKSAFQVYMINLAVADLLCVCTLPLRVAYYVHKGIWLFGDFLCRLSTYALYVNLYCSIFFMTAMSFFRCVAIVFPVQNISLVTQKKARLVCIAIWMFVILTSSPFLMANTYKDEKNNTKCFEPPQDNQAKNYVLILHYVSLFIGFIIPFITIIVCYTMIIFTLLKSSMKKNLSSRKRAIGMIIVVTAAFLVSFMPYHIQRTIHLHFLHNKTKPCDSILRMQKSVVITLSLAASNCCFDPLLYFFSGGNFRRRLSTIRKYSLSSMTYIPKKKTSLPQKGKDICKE
Experimental: An ice-cooled tris hydrochloride/sodium chloride buffer (10 mM/100 mM, pH 7.5) was added to terminate the reaction, followed by immediate filtration through a Wattman CF/C filter. The filter was washed twice with 20 ml aliquots of the ice-cooled buffer. The radioactivity of the residue was measured by a liquid scintillation counter. […] Using the Cheng-Prusoff formula, a dissociation constant (KD) was calculated from the IC50. […] Incidentally, the values in Table 2 indicate dissociation constants KD (mol).

[1] = test system: isolated guinea pig ileum; test: Antileucotriene D4 Action (In Vitro Test): leukotriene D4 contractile response of isolated guinea pig ileum; type: cell-based; conditions: Cavia porcellus, 0.5 h; read-out: Anti-LT action (IC50)
Experimental: Antileucotriene D4 Action (In Vitro Test)
An isolated guinea pig ileum was cut into about 2 cm lengths. Each ileum piece was suspended in a 20-ml container filled with the Krebs buffer. […] The Krebs buffer was controlled at 37° C., through which a mixed gas (95%O2 -5%CO2) was bubbled. […] After the ileum piece was washed several times with the buffer, a test compound (will be identified by its example number; this will apply likewise hereinafter) of a predetermined specific concentration was added.

airway = conditions: Larsen & Acosta 1993, cited from earlier work
[2] = read-out: LTD receptor, dissociation constant KD
[3] = 0.2 nM [3H]leukotriene D4, guinea pig pulmomembranous protein, pH 7.5, 30 min, calculated from IC50 by Cheng-Prusoff formula, read-out: LTD receptor, dissociation constant KD

Kd (Leucotriene D4 Receptor; [2]): 11.1 nM
Compound: CCOC(=O)c1cc(Br)cc2c(=O)cc(-c3cccc(OCc4ccc5ccc(Cl)cc5n4)c3)oc12 [Example 14, 6-bromo-8-ethoxycarbonyl-3'-[2-(7-chloroquinolinyl)methoxy]flavone]

Kd (Leucotriene D4 Receptor; [2]): 210 nM
Compound: CCOC(=O)c1cc(Br)cc2c(=O)cc(-c3cccc(OCc4nc5ccccc5n4C)c3)oc12 [Example 17, 6-bromo-8-ethoxycarbonyl-3'-[2-(1-methylbenzimidazolyl)methoxy]flavone]

Kd (Leucotriene D4 Receptor; [2]): 79.4 nM
Compound: CCOC(=O)c1cc(Br)cc2c(=O)cc(-c3cccc(OCc4nc5ccccc5s4)c3)oc12 [Example 18, 6-bromo-8-ethoxycarbonyl-3'-[(2-benzothiazolinyl)methoxy]flavone]

Compound: O=C(O)c1cc(Br)cc2c(=O)cc(-c3cccc(OCc4ccc5ccccc5n4)c3)oc12 [Example 23, 6-bromo-8-carboxy-3'-(2-guinolinylmethoxy)flavone]
IC50 [1]: 61 nM

Kd (Leucotriene D4 Receptor; [3]): 1130 nM
Compound: O=C(O)c1cc(Br)cc2c(=O)cc(-c3cccc(OCc4ccc5ccccc5c4)c3)oc12 [Example 26, 6-bromo-8-carboxy-3'-(2-naphthylmethoxy)flavone]

Compound: O=C(O)c1cc(Br)cc2c(=O)cc(-c3cccc(OCc4nc5ccccc5s4)c3)oc12 [Example 27, 6-bromo-8-carboxy-3'-(2-benzothiazolylmethoxy)flavone]
Kd (Leucotriene D4 Receptor; [3]): 79.4 nM

Kd (Leucotriene D4 Receptor; [3]): 210 nM
Compound: Cn1c(COc2cccc(-c3cc(=O)c4cc(Br)cc(C(=O)O)c4o3)c2)nc2ccccc21 [Example 28, 6-bromo-8-carboxy-3'-[2-(1-methylbenzimidazolyl)methoxy]flavone]

Kd (Leucotriene D4 Receptor; [2]): 805 nM
Compound: O=C(O)c1cccc2c(=O)c(O)c(-c3ccc(OCc4ccc5ccccc5n4)cc3)oc12 [Example 29, 8-carboxy-3-hydroxy-4'-[(2-quinolinyl)methoxy]flavone]

Kd (Leucotriene D4 Receptor; [2]): 9160 nM
Compound: O=C(O)c1cccc2c(=O)c(OCCN3C(=O)c4ccccc4C3=O)c(-c3ccc(OCc4ccc5ccccc5n4)cc3)oc12 [Example 31, 8-carboxy-3-(2-phthalimido)ethoxy-4'-[(2-quinolinyl)methoxy]flavone]

Compound: O=c1cc(-c2cccc(/C=C/c3ccc4ccccc4n3)c2)oc2ccc(-c3nnn[nH]3)cc12 [Example 37, 3'-[2-(2-quinolinyl)ethenyl]-6-(5-tetrazolyl)flavone]
Kd (Leucotriene D4 Receptor; [3]): 307 nM

Kd (Leucotriene D4 Receptor; [2]): 17.3 nM
Compound: O=C(O)c1cccc2c(=O)cc(-c3cccc(/C=C/c4ccc5ccccc5n4)c3)oc12 [Example 39, 8-carboxy-3'-[2-(2-quinolinyl)ethenyl]flavone]

Compound: O=C(O)c1cc(F)cc2c(=O)cc(-c3cccc(/C=C/c4ccc5ccccc5n4)c3)oc12 [Example 40, 8-carboxy-6-fluoro-3'-[2-(2-quinolinyl)ethenyl]flavone]
Kd (Leucotriene D4 Receptor; [3]): 127 nM

IC50 [1]: 15 nM
Compound: O=C(O)c1cc(Cl)cc2c(=O)cc(-c3cccc(/C=C/c4ccc5ccccc5n4)c3)oc12 [Example 41, 8-carboxy-6-chloro-3'-[2-(2-quinolinyl)ethenyl]flavone]

IC50 [1]: 100 nM
Compound: O=C(O)c1cc(Br)cc2c(=O)cc(-c3cccc(/C=C/c4ccc5ccccc5n4)c3)oc12 [Example 42, 8-carboxy-6-bromo-3'-[2-(2-quinolinyl)ethenyl]flavone]

IC50 [1]: 28 nM
Compound: Cc1cc(C(=O)O)c2oc(-c3cccc(/C=C/c4ccc5ccccc5n4)c3)cc(=O)c2c1 [Example 43, 8-carboxy-6-methyl-3'-[2-(2-quinolinyl)ethenyl]flavone]

Kd (Leucotriene D4 Receptor; [2]): 11 nM
Compound: O=c1cc(-c2cccc(/C=C/c3ccc4ccccc4n3)c2)oc2c(-c3nn[nH]n3)cc(Cl)cc12 [Example 45, 6-chloro-3'-[2-(2-quinolinyl)ethenyl]-8-(5-tetrazolyl)flavone]

Compound: CCCCC/C=C\C\C=C/C=C/C=C/[C@@H](SC[C@H](NC(=O)CC[C@H](N)C(=O)O)C(=O)NCC(=O)O)[C@@H](O)CCCC(=O)O [LTC4]
effect on airway constriction relative to histamine (airway; inhaled, vs histamine): 1,000 times

Compound: CCCCC/C=C\C\C=C/C=C/C=C/[C@@H](SC[C@H](N)C(=O)O)[C@@H](O)CCCC(=O)O [LTE4]
activity compared with the other leucotrienes (airway): lower activities compared with the other leucotrienes
duration of induced airway constriction (airway): long lasting

Compound: [^3 H]leukotriene D4 [reference compound]
Kd (Leucotriene D4 Receptor; [3H]leukotriene D4, guinea pig pulmomembranous protein, read-out: dissociation constant (KD) of radioligand): 0.216 nM
Hill plot slope (Leucotriene D4 Receptor; [3H]leukotriene D4 binding): 0.99
